Key:
[1] = system: human sebocytes immortalized in culture, derived from the SZ95 line; experiment: Quantity of lipids produced by sebocytes (Nile Red fluorescence); type: cell-based; conditions: 100 μM, 2 days of treatment, total lipids, SZ95 sebocytes at confluence
Procedure: The test compounds were evaluated on a model of human sebocytes immortalized in culture, derived from the SZ95 line described in Zouboulis, C. C. et al., Establishment and Characterization of an Immortalized Human Sebaceous Gland Cell Line, J. Invest. Dermatol., 113, 1011-1020 (1999).
The test consists of measuring the quantity of lipids produced by the sebocytes of the cell line (at confluence), with or without active agents present, diluted in DMSO, in such a way that the final amount of DMSO in the basal medium is 0.1%. After 2 days of treatment, the adhering cells are treated with Nile Red (1 μg/ml). The lipids content is then quantified by measuring the fluorescence of the stain (two excitation/emission pairs: 485-540 nm for neutral lipids and 540-620 nm for non-neutral lipids). The results are given for total lipids (combining both measurements).
The test is carried out in decaplicate (assayed products and control) in a 96-well plate and renewed 3 times.

[2] = Stability in solution, hydrolysis of the esters by HPLC; type: physicochemical; conditions: hydrolysis of glucopyranose linoleate; 0.1 wt. % in ethanol/isopropanol/water (64/16/20 by volume), 45° C., 2 months
Procedure: The stability of the compounds according to the invention was evaluated (measurement of hydrolysis of the esters).
Solutions were prepared at 0.1 wt. % of the compounds in ethanol/isopropanol/water mixture (64/16/20 by volume). These solutions were left in a thermostat at 45° C., for 2 months.
Then the percentage hydrolysis of glucopyranose linoleate was determined by HPLC.

[3] = Peroxidizability in the air, proportion of intact molecules by HPLC; type: physicochemical; conditions: storage for two months, at room temperature (about 20 to 25° C.), HPLC with UV detection (210 nm)
Procedure: The purpose of this study is to evaluate the peroxidizability of various molecules or mixtures of molecules by carrying out various tests. These tests consist of measuring the proportion of molecules still intact after storage for two months, in air, at room temperature (about 20 to 25° C.). The loss of the starting product is monitored by HPLC with UV detection (210 nm).

[4] = system: SZ 95 sebocytes; experiment: Cytotoxicity on sebocytes, production of LDH in the basal medium; type: cell-based; conditions: for Variation, LDH/control: 100 μM
Procedure: The tolerance of the glucose ester at 6 of linoleic acid was determined by measuring the cytotoxicity of the product on SZ 95 sebocytes, with linoleic acid alone as control.
The test conditions are identical to those examined in example 1. Cytotoxicity is measured by the production of LDH in the basal medium, according to the method described in Thomas J P et al.; Lethal damage to endothelial cells by oxidized low density lipoprotein: role of selenoperoxidases in cytoprotection against lipid hydroperoxide and iron mediated reactions. Journal of lipid research 34: 479-490. 1993.

Q: Which “Variation, lipid/CONTROL” value [1] does the source give for CCCCCC=CCC=CCCCCCCCC(=O)NC1C(O)OC(CO)C(O)C1O (stereo not shown) here?
A: +40%

Q: With CCCCCC=CCC=CCCCCCCCC(=O)O[C@H]1[C@H](O)[C@@H](CO)OC(O)[C@@H]1O (stereo partly drawn) [3-O-octadeca-9,12-dienoyl-D-glucopyranose] as the compound, how does the “% hydrolysis” value [2] read?
A: 30%

Q: Which “% hydrolysis” value [2] does the source give for CCCCCC=CCC=CCCCCCCCC(=O)OC[C@H]1OC(O)[C@H](O)[C@@H](O)[C@@H]1O (stereo partly drawn) [6-O-octadeca-9,12-dienoyl-D-glucopyranose] here?
A: 7%

Q: What about the intact molecules [3] of the same compound?
A: 30%

Q: And the “Variation, LDH/control” value ([4]; SZ 95 sebocytes, LDH in the basal medium)?
A: Not significant

Q: What about the “cytotoxicity with respect to sebocytes (in words)” value ([4]; SZ 95 sebocytes) of the same compound?
A: No cytotoxicity was found

Q: With C[C@]12CC[C@H](O)CC1=CC[C@@H]1[C@@H]2CC[C@]2(C)C(=O)CC[C@@H]12 [DHEA, dehydroepiandrosterone, reference compound] as the compound, how does the “Variation, lipid/CONTROL” value [1] read?
A: +80%

Q: Which intact molecules [3] does the source give for CCCCCC=CCC=CCCCCCCCC(=O)O [Linoleic acid, octadeca-9,12-dienoic acid, reference compound] here?
A: no longer contain intact molecules

Q: What about the “Variation, LDH/control” value ([4]; human) of the same compound?
A: +20%

Q: With CCCCC/C=C\C/C=C\CCCCCCCC(=O)OC [methyl linoleate] as the compound, how does the intact molecules [3] read?
A: no longer contain intact molecules
